Target: Calcium/calmodulin-dependent protein kinase type 1G (Homo sapiens) (UniProt Q96NX5)
Sequence (Q96NX5 whole entry): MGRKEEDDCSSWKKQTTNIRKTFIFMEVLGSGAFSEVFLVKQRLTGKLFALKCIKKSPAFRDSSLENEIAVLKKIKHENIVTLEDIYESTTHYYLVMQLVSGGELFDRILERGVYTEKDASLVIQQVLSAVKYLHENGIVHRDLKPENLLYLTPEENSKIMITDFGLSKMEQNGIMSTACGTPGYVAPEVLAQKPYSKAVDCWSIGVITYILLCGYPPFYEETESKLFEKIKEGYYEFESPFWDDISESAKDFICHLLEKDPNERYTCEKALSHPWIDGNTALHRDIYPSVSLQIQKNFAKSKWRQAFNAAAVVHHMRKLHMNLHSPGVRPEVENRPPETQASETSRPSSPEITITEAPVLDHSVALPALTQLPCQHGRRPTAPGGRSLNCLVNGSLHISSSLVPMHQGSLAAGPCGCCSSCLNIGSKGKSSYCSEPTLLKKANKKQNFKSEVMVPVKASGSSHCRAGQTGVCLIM

| SMILES | ΔTm [°C] |
| --- | --- |
| NC1=N/C(=C2/CCNC(=O)c3[nH]ccc32)C(=O)N1 [DEBROMOHYMENIALDISINE] | 0.2 |
| COc1cccc(-c2cc(=O)c3ccccc3o2)c1N | -0.2 |
| CC(C)n1cnc2/c(=N/c3cccc(Cl)c3)nc(NCCO)[nH]c21 | 0.1 |
| NC(=O)c1ccc2[nH]c(-c3ccc(Oc4ccc(Cl)cc4)cc3)nc2c1 | 2.6 |

Target: Calcium/calmodulin-dependent protein kinase type II subunit alpha (Homo sapiens) (UniProt Q9UQM7)
Sequence (Q9UQM7 whole entry): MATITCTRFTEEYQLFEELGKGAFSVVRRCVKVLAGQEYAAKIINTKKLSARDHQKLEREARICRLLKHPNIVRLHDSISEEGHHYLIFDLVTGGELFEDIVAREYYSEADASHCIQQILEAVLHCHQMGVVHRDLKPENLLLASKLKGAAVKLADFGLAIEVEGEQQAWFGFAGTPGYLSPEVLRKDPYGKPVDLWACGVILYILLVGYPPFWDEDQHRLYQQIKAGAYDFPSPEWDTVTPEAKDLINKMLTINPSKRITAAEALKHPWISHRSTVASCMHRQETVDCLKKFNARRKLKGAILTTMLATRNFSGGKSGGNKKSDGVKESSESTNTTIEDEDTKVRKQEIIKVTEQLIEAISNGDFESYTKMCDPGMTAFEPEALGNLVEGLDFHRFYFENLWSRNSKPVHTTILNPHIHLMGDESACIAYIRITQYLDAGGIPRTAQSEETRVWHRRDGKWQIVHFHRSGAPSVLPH

| SMILES | ΔTm [°C] |
| --- | --- |
| NC1=N/C(=C2/CCNC(=O)c3[nH]ccc32)C(=O)N1 [DEBROMOHYMENIALDISINE] | 0.1 |
| COc1cccc(-c2cc(=O)c3ccccc3o2)c1N | -0.5 |
| CC(C)n1cnc2/c(=N/c3cccc(Cl)c3)nc(NCCO)[nH]c21 | 0.7 |
| NC(=O)c1ccc2[nH]c(-c3ccc(Oc4ccc(Cl)cc4)cc3)nc2c1 | 0.1 |

Target: Calcium/calmodulin-dependent protein kinase type II subunit beta (Homo sapiens) (UniProt Q13554)

| SMILES | ΔTm [°C] |
| --- | --- |
| NC1=N/C(=C2/CCNC(=O)c3[nH]ccc32)C(=O)N1 [DEBROMOHYMENIALDISINE] | 0.7 |
| COc1cccc(-c2cc(=O)c3ccccc3o2)c1N | 0 |
| CC(C)n1cnc2/c(=N/c3cccc(Cl)c3)nc(NCCO)[nH]c21 | 0.4 |
| NC(=O)c1ccc2[nH]c(-c3ccc(Oc4ccc(Cl)cc4)cc3)nc2c1 | 0.5 |

Target: Calcium/calmodulin-dependent protein kinase type II subunit delta (Homo sapiens) (UniProt Q13557)
Sequence (Q13557 whole entry): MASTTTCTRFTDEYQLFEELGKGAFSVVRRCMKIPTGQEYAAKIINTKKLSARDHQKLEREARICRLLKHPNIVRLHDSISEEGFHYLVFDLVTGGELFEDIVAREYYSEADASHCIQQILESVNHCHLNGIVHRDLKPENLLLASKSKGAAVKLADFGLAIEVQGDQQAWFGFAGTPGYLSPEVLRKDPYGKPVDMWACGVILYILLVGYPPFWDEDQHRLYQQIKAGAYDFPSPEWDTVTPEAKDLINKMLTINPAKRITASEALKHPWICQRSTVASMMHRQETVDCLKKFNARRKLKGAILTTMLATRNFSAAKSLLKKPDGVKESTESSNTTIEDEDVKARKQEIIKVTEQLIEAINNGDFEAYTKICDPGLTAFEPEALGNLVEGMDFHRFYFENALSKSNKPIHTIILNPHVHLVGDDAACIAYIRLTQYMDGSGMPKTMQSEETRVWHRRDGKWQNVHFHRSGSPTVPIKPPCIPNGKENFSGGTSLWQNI

| SMILES | ΔTm [°C] |
| --- | --- |
| NC1=N/C(=C2/CCNC(=O)c3[nH]ccc32)C(=O)N1 [DEBROMOHYMENIALDISINE] | 0.1 |
| COc1cccc(-c2cc(=O)c3ccccc3o2)c1N | 0.3 |
| CC(C)n1cnc2/c(=N/c3cccc(Cl)c3)nc(NCCO)[nH]c21 | -0.4 |
| NC(=O)c1ccc2[nH]c(-c3ccc(Oc4ccc(Cl)cc4)cc3)nc2c1 | 1.5 |

Target: Calcium/calmodulin-dependent protein kinase type II subunit gamma (Homo sapiens) (UniProt Q13555)

| SMILES | ΔTm [°C] |
| --- | --- |
| NC1=N/C(=C2/CCNC(=O)c3[nH]ccc32)C(=O)N1 [DEBROMOHYMENIALDISINE] | 0.3 |
| COc1cccc(-c2cc(=O)c3ccccc3o2)c1N | 0.1 |
| CC(C)n1cnc2/c(=N/c3cccc(Cl)c3)nc(NCCO)[nH]c21 | 1.1 |
| NC(=O)c1ccc2[nH]c(-c3ccc(Oc4ccc(Cl)cc4)cc3)nc2c1 | -0.1 |

Target: Dual specificity protein kinase CLK2 (Homo sapiens) (UniProt P49760)

| SMILES | ΔTm [°C] |
| --- | --- |
| NC1=N/C(=C2/CCNC(=O)c3[nH]ccc32)C(=O)N1 [DEBROMOHYMENIALDISINE] | 3.7 |
| COc1cccc(-c2cc(=O)c3ccccc3o2)c1N | 0 |
| CC(C)n1cnc2/c(=N/c3cccc(Cl)c3)nc(NCCO)[nH]c21 | 4.5 |
| NC(=O)c1ccc2[nH]c(-c3ccc(Oc4ccc(Cl)cc4)cc3)nc2c1 | -0.4 |

Target: Dual specificity protein kinase CLK3 (Homo sapiens) (UniProt P49761)

| SMILES | ΔTm [°C] |
| --- | --- |
| NC1=N/C(=C2/CCNC(=O)c3[nH]ccc32)C(=O)N1 [DEBROMOHYMENIALDISINE] | 4.5 |
| COc1cccc(-c2cc(=O)c3ccccc3o2)c1N | 0 |
| CC(C)n1cnc2/c(=N/c3cccc(Cl)c3)nc(NCCO)[nH]c21 | 4 |
| NC(=O)c1ccc2[nH]c(-c3ccc(Oc4ccc(Cl)cc4)cc3)nc2c1 | 0.5 |

Target: Casein kinase I isoform gamma-1 (Homo sapiens) (UniProt Q9HCP0)
Sequence (Q9HCP0 whole entry, looked up, canonical isoform): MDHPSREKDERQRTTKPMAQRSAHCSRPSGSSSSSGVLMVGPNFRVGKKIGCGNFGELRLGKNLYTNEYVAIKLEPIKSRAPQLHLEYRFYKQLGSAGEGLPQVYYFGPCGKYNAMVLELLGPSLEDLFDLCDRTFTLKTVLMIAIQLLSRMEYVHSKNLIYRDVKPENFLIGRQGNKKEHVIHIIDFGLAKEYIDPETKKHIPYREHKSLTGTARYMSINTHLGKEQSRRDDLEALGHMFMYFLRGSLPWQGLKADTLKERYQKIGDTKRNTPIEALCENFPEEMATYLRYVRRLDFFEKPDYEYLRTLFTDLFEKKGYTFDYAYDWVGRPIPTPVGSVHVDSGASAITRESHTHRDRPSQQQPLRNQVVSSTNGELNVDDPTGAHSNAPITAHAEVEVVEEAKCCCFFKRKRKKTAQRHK

| SMILES | ΔTm [°C] |
| --- | --- |
| NC1=N/C(=C2/CCNC(=O)c3[nH]ccc32)C(=O)N1 [DEBROMOHYMENIALDISINE] | 3.6 |
| COc1cccc(-c2cc(=O)c3ccccc3o2)c1N | 0.1 |
| CC(C)n1cnc2/c(=N/c3cccc(Cl)c3)nc(NCCO)[nH]c21 | 6.1 |
| NC(=O)c1ccc2[nH]c(-c3ccc(Oc4ccc(Cl)cc4)cc3)nc2c1 | 1.7 |

Target: Death-associated protein kinase 3 (Homo sapiens) (UniProt O43293)

| SMILES | ΔTm [°C] |
| --- | --- |
| NC1=N/C(=C2/CCNC(=O)c3[nH]ccc32)C(=O)N1 [DEBROMOHYMENIALDISINE] | 5.2 |
| COc1cccc(-c2cc(=O)c3ccccc3o2)c1N | -0.5 |
| CC(C)n1cnc2/c(=N/c3cccc(Cl)c3)nc(NCCO)[nH]c21 | 2.2 |
| NC(=O)c1ccc2[nH]c(-c3ccc(Oc4ccc(Cl)cc4)cc3)nc2c1 | 1.2 |

Target: T1, Myotonin-protein kinase (Homo sapiens) (UniProt Q09013)
T1 sequence (whole entry): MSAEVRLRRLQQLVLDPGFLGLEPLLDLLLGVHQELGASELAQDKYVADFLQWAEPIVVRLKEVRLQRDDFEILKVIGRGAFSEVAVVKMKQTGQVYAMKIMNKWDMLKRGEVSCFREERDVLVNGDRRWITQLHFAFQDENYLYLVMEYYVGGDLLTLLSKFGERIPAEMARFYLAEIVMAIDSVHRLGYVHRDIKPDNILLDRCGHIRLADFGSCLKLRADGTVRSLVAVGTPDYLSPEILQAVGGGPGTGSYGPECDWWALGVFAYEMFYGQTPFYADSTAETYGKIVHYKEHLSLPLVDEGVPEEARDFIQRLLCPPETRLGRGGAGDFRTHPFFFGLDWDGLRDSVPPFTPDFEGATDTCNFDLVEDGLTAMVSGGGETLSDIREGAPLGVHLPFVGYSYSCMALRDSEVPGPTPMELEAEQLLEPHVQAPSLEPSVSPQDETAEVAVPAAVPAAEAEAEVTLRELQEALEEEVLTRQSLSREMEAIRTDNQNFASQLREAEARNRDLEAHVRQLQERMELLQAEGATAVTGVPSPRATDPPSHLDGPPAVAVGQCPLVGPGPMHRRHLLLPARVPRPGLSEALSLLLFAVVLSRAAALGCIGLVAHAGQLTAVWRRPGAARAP

| SMILES | ΔTm [°C] |
| --- | --- |
| NC1=N/C(=C2/CCNC(=O)c3[nH]ccc32)C(=O)N1 [DEBROMOHYMENIALDISINE] | 2.3 |
| COc1cccc(-c2cc(=O)c3ccccc3o2)c1N | -0.2 |
| CC(C)n1cnc2/c(=N/c3cccc(Cl)c3)nc(NCCO)[nH]c21 | 0.1 |
| NC(=O)c1ccc2[nH]c(-c3ccc(Oc4ccc(Cl)cc4)cc3)nc2c1 | 1.3 |

Target: Dual specificity mitogen-activated protein kinase kinase 2 (Homo sapiens, UniProt P36507)
Sequence (P36507 whole entry): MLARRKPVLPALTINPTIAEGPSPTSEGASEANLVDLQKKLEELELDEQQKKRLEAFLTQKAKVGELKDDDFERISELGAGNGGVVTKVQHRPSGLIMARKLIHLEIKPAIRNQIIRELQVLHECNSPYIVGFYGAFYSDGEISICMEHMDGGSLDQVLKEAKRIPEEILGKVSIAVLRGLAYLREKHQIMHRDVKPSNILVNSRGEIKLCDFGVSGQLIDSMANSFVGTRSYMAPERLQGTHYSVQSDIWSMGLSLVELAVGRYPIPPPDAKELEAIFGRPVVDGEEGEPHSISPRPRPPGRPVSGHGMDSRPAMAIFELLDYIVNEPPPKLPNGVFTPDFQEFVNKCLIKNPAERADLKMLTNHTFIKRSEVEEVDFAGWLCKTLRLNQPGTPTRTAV

| SMILES | ΔTm [°C] |
| --- | --- |
| NC1=N/C(=C2/CCNC(=O)c3[nH]ccc32)C(=O)N1 [DEBROMOHYMENIALDISINE] | 0.4 |
| COc1cccc(-c2cc(=O)c3ccccc3o2)c1N | 0.1 |
| CC(C)n1cnc2/c(=N/c3cccc(Cl)c3)nc(NCCO)[nH]c21 | 0.2 |
| NC(=O)c1ccc2[nH]c(-c3ccc(Oc4ccc(Cl)cc4)cc3)nc2c1 | -1.2 |

Target: T2, Dual specificity mitogen-activated protein kinase kinase 6 (Homo sapiens) (UniProt P52564)
T2 sequence (whole entry): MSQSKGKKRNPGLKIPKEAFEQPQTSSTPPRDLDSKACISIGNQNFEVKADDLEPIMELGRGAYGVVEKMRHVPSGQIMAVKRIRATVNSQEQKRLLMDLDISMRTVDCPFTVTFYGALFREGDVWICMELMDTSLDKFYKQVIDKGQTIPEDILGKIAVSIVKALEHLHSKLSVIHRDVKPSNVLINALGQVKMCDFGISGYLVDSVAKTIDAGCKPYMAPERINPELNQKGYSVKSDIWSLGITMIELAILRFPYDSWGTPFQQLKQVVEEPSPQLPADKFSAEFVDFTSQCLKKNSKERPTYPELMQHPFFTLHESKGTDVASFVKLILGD

| SMILES | ΔTm [°C] |
| --- | --- |
| NC1=N/C(=C2/CCNC(=O)c3[nH]ccc32)C(=O)N1 [DEBROMOHYMENIALDISINE] | 0.3 |
| COc1cccc(-c2cc(=O)c3ccccc3o2)c1N | -0.1 |
| CC(C)n1cnc2/c(=N/c3cccc(Cl)c3)nc(NCCO)[nH]c21 | 0.3 |
| NC(=O)c1ccc2[nH]c(-c3ccc(Oc4ccc(Cl)cc4)cc3)nc2c1 | 0.4 |

Target: Mitogen-activated protein kinase 3 (Homo sapiens, UniProt P27361)

| SMILES | ΔTm [°C] |
| --- | --- |
| NC1=N/C(=C2/CCNC(=O)c3[nH]ccc32)C(=O)N1 [DEBROMOHYMENIALDISINE] | 0.6 |
| COc1cccc(-c2cc(=O)c3ccccc3o2)c1N | 0 |
| CC(C)n1cnc2/c(=N/c3cccc(Cl)c3)nc(NCCO)[nH]c21 | 0.2 |
| NC(=O)c1ccc2[nH]c(-c3ccc(Oc4ccc(Cl)cc4)cc3)nc2c1 | -0.2 |

Target: Mitogen-activated protein kinase 6 (Homo sapiens) (UniProt Q16659)
Sequence (Q16659 whole entry): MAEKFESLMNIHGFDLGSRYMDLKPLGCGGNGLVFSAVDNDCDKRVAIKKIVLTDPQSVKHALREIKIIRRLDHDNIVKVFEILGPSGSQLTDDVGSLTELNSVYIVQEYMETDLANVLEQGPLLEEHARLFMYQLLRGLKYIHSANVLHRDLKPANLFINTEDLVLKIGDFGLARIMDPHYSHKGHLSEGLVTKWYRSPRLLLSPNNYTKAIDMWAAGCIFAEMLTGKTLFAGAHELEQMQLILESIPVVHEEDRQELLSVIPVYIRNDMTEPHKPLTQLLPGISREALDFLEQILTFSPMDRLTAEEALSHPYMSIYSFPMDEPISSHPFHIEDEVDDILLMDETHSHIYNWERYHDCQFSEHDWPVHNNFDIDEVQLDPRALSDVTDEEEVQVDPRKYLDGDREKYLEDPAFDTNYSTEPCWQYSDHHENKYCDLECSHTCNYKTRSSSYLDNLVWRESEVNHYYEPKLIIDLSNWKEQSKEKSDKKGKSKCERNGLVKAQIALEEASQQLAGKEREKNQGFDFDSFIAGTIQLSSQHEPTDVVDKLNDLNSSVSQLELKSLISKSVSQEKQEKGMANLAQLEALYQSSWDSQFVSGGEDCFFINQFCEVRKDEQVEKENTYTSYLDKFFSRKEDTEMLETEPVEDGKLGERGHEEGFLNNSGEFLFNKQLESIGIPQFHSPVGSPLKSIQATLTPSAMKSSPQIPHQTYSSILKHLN

| SMILES | ΔTm [°C] |
| --- | --- |
| NC1=N/C(=C2/CCNC(=O)c3[nH]ccc32)C(=O)N1 [DEBROMOHYMENIALDISINE] | 0.3 |
| COc1cccc(-c2cc(=O)c3ccccc3o2)c1N | 0.3 |
| CC(C)n1cnc2/c(=N/c3cccc(Cl)c3)nc(NCCO)[nH]c21 | 0.2 |
| NC(=O)c1ccc2[nH]c(-c3ccc(Oc4ccc(Cl)cc4)cc3)nc2c1 | 0.5 |

Target: Serine/threonine-protein kinase OSR1 (Homo sapiens) (UniProt O95747)

| SMILES | ΔTm [°C] |
| --- | --- |
| NC1=N/C(=C2/CCNC(=O)c3[nH]ccc32)C(=O)N1 [DEBROMOHYMENIALDISINE] | 0.4 |
| COc1cccc(-c2cc(=O)c3ccccc3o2)c1N | 0.2 |
| CC(C)n1cnc2/c(=N/c3cccc(Cl)c3)nc(NCCO)[nH]c21 | 1.3 |
| NC(=O)c1ccc2[nH]c(-c3ccc(Oc4ccc(Cl)cc4)cc3)nc2c1 | 0.8 |

Target: Serine/threonine-protein kinase PLK1 (Homo sapiens) (UniProt P53350)
Sequence (P53350 whole entry): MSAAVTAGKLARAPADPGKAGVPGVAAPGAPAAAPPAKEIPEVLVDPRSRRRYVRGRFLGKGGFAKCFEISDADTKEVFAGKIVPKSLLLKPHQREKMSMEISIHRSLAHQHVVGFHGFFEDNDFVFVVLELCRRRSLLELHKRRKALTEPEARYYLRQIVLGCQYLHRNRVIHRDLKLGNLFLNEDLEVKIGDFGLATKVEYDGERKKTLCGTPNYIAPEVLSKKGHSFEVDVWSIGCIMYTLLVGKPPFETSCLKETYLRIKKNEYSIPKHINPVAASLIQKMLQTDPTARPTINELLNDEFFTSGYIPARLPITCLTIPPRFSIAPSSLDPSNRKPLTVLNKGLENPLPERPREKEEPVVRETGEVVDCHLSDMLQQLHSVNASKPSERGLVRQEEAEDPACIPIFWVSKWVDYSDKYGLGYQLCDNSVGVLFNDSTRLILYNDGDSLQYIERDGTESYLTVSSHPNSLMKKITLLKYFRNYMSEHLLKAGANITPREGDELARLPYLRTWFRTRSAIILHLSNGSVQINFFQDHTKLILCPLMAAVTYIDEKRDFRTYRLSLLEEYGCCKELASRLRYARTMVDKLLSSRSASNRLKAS

| SMILES | ΔTm [°C] |
| --- | --- |
| NC1=N/C(=C2/CCNC(=O)c3[nH]ccc32)C(=O)N1 [DEBROMOHYMENIALDISINE] | 2.4 |
| COc1cccc(-c2cc(=O)c3ccccc3o2)c1N | 0.3 |
| CC(C)n1cnc2/c(=N/c3cccc(Cl)c3)nc(NCCO)[nH]c21 | 7.5 |
| NC(=O)c1ccc2[nH]c(-c3ccc(Oc4ccc(Cl)cc4)cc3)nc2c1 | 4.4 |

Target: TRAF2 and NCK-interacting protein kinase (Homo sapiens) (UniProt Q9UKE5)
Sequence (Q9UKE5 whole entry, looked up): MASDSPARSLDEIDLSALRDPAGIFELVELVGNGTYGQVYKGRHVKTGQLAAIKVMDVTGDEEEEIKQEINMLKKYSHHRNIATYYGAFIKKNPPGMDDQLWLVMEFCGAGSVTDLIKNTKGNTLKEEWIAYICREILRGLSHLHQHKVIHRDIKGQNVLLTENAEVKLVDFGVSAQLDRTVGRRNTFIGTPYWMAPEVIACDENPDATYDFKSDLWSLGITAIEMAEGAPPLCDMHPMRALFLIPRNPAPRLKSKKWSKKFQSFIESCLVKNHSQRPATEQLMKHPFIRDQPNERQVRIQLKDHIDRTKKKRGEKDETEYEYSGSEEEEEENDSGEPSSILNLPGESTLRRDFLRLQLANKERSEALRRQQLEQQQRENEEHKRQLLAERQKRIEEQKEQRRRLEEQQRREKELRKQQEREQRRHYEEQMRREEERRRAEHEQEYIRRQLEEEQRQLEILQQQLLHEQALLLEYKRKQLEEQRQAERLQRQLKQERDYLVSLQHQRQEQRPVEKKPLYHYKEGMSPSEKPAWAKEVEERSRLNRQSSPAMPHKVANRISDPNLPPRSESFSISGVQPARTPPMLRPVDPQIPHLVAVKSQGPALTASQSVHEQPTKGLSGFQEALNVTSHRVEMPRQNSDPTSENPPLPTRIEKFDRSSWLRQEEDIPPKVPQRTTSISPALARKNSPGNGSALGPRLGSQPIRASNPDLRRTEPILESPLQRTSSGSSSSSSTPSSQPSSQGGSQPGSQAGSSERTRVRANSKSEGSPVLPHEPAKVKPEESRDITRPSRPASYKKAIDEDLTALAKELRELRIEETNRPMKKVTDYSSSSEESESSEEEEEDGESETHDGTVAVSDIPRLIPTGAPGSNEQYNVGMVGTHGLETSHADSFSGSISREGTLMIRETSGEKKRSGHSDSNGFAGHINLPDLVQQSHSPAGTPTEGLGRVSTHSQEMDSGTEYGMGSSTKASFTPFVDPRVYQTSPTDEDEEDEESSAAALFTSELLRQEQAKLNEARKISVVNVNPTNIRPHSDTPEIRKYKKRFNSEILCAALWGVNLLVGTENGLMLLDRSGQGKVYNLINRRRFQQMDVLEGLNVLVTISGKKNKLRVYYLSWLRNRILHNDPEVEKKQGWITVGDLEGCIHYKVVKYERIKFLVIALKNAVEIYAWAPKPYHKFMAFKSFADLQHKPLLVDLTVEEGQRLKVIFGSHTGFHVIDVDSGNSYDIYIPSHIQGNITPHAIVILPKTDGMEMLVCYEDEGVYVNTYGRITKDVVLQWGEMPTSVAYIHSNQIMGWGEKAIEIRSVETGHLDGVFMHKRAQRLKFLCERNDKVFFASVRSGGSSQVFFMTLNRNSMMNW

| SMILES | ΔTm [°C] |
| --- | --- |
| NC1=N/C(=C2/CCNC(=O)c3[nH]ccc32)C(=O)N1 [DEBROMOHYMENIALDISINE] | 1.6 |
| COc1cccc(-c2cc(=O)c3ccccc3o2)c1N | -0.1 |
| CC(C)n1cnc2/c(=N/c3cccc(Cl)c3)nc(NCCO)[nH]c21 | 3.1 |
| NC(=O)c1ccc2[nH]c(-c3ccc(Oc4ccc(Cl)cc4)cc3)nc2c1 | -1.6 |

Target: T3, Serine/threonine-protein kinase VRK1 (Homo sapiens) (UniProt Q99986)
T3 sequence (whole entry): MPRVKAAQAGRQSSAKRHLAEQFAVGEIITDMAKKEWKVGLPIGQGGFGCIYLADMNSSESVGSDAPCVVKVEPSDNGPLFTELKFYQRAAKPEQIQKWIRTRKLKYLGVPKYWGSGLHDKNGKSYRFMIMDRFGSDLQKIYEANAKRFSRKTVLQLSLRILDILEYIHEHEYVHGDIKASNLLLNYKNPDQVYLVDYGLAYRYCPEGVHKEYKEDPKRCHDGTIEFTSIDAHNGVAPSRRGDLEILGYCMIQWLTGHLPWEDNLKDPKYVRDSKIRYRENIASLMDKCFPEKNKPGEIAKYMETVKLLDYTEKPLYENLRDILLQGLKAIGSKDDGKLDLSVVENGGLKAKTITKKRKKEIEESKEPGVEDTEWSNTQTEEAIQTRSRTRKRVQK

| SMILES | ΔTm [°C] |
| --- | --- |
| NC1=N/C(=C2/CCNC(=O)c3[nH]ccc32)C(=O)N1 [DEBROMOHYMENIALDISINE] | 1.3 |
| COc1cccc(-c2cc(=O)c3ccccc3o2)c1N | 0.2 |
| CC(C)n1cnc2/c(=N/c3cccc(Cl)c3)nc(NCCO)[nH]c21 | 0.5 |
| NC(=O)c1ccc2[nH]c(-c3ccc(Oc4ccc(Cl)cc4)cc3)nc2c1 | 0.5 |
